From the NIST ThermoML archive (doi:10.1021/je100472t)
Numbers after ± are expanded uncertainties.

Assay: xn = mol fraction of the nth substance listed
Conditions: 101 kPa, Liquid; for speed of sound: Pulse-echo method; for mass density: Vibrating tube method

CNc1ccccc1 [N-methylaniline] + CCC(C)=O
speed of sound (293.15 K, x2 = 0.0627): 1562.9 ± 2 m/s | speed of sound (293.15 K, x2 = 0.1133): 1546.9 ± 2 m/s | speed of sound (293.15 K, x2 = 0.1564): 1532.9 ± 1.9 m/s | speed of sound (293.15 K, x2 = 0.2058): 1517 ± 1.9 m/s | speed of sound (293.15 K, x2 = 0.2538): 1501 ± 1.8 m/s | speed of sound (293.15 K, x2 = 0.3018): 1484.8 ± 1.7 m/s | speed of sound (293.15 K, x2 = 0.3464): 1469.4 ± 1.6 m/s | speed of sound (293.15 K, x2 = 0.3938): 1453 ± 1.6 m/s | speed of sound (293.15 K, x2 = 0.4435): 1435.6 ± 1.5 m/s | speed of sound (293.15 K, x2 = 0.4907): 1418.5 ± 1.4 m/s | speed of sound (293.15 K, x2 = 0.5508): 1396.2 ± 1.4 m/s | speed of sound (293.15 K, x2 = 0.5959): 1378.9 ± 1.3 m/s | speed of sound (293.15 K, x2 = 0.6529): 1356.6 ± 1.2 m/s | speed of sound (293.15 K, x2 = 0.7489): 1318.2 ± 1.1 m/s | speed of sound (293.15 K, x2 = 0.7938): 1300 ± 1.1 m/s | speed of sound (293.15 K, x2 = 0.8492): 1277 ± 0.98 m/s | speed of sound (293.15 K, x2 = 0.8981): 1256.7 ± 0.92 m/s | speed of sound (293.15 K, x2 = 0.9525): 1232.9 ± 0.86 m/s | mass density (293.15 K, x2 = 0.0627): 977.942 ± 0.74 kg/m3 | mass density (293.15 K, x2 = 0.1133): 970.977 ± 0.68 kg/m3 | mass density (293.15 K, x2 = 0.1564): 964.888 ± 0.63 kg/m3 | mass density (293.15 K, x2 = 0.2058): 957.75 ± 0.57 kg/m3 | mass density (293.15 K, x2 = 0.2538): 950.572 ± 0.53 kg/m3 | mass density (293.15 K, x2 = 0.3018): 943.182 ± 0.48 kg/m3 | mass density (293.15 K, x2 = 0.3464): 936.057 ± 0.44 kg/m3 | mass density (293.15 K, x2 = 0.3938): 928.444 ± 0.4 kg/m3 | mass density (293.15 K, x2 = 0.4435): 920.205 ± 0.36 kg/m3 | mass density (293.15 K, x2 = 0.4907): 912.022 ± 0.33 kg/m3 | mass density (293.15 K, x2 = 0.5508): 901.21 ± 0.29 kg/m3 | mass density (293.15 K, x2 = 0.5959): 892.779 ± 0.27 kg/m3 | mass density (293.15 K, x2 = 0.6529): 881.753 ± 0.24 kg/m3 | mass density (293.15 K, x2 = 0.7489): 862.241 ± 0.2 kg/m3 | mass density (293.15 K, x2 = 0.7938): 852.894 ± 0.19 kg/m3 | mass density (293.15 K, x2 = 0.8492): 840.63 ± 0.17 kg/m3 | mass density (293.15 K, x2 = 0.8981): 829.68 ± 0.16 kg/m3 | mass density (293.15 K, x2 = 0.9525): 816.716 ± 0.15 kg/m3 | speed of sound (298.15 K, x2 = 0.076): 1540.1 ± 2 m/s | speed of sound (298.15 K, x2 = 0.1115): 1528.8 ± 2 m/s | speed of sound (298.15 K, x2 = 0.1566): 1514.2 ± 1.9 m/s | speed of sound (298.15 K, x2 = 0.2076): 1497.6 ± 1.8 m/s | speed of sound (298.15 K, x2 = 0.2589): 1480.6 ± 1.8 m/s | speed of sound (298.15 K, x2 = 0.2967): 1467.7 ± 1.7 m/s | speed of sound (298.15 K, x2 = 0.3471): 1450.5 ± 1.6 m/s | speed of sound (298.15 K, x2 = 0.3973): 1432.8 ± 1.6 m/s | speed of sound (298.15 K, x2 = 0.4477): 1414.8 ± 1.5 m/s | speed of sound (298.15 K, x2 = 0.495): 1397.2 ± 1.4 m/s | speed of sound (298.15 K, x2 = 0.5471): 1377.8 ± 1.4 m/s | speed of sound (298.15 K, x2 = 0.5992): 1357.9 ± 1.3 m/s | speed of sound (298.15 K, x2 = 0.6921): 1321.7 ± 1.2 m/s | speed of sound (298.15 K, x2 = 0.7463): 1299.5 ± 1.1 m/s | speed of sound (298.15 K, x2 = 0.8007): 1277 ± 1 m/s | speed of sound (298.15 K, x2 = 0.847): 1257.5 ± 0.98 m/s | speed of sound (298.15 K, x2 = 0.8993): 1235.1 ± 0.92 m/s | speed of sound (298.15 K, x2 = 0.9472): 1214.5 ± 0.86 m/s | mass density (298.15 K, x2 = 0.076): 972.066 ± 0.72 kg/m3 | mass density (298.15 K, x2 = 0.1115): 967.149 ± 0.68 kg/m3 | mass density (298.15 K, x2 = 0.1566): 960.718 ± 0.62 kg/m3 | mass density (298.15 K, x2 = 0.2076): 953.334 ± 0.57 kg/m3 | mass density (298.15 K, x2 = 0.2589): 945.633 ± 0.52 kg/m3 | mass density (298.15 K, x2 = 0.2967): 939.765 ± 0.48 kg/m3 | mass density (298.15 K, x2 = 0.3471): 931.809 ± 0.44 kg/m3 | mass density (298.15 K, x2 = 0.3973): 923.563 ± 0.4 kg/m3 | mass density (298.15 K, x2 = 0.4477): 915.055 ± 0.36 kg/m3 | mass density (298.15 K, x2 = 0.495): 906.694 ± 0.33 kg/m3 | mass density (298.15 K, x2 = 0.5471): 897.284 ± 0.3 kg/m3 | mass density (298.15 K, x2 = 0.5992): 887.579 ± 0.27 kg/m3 | mass density (298.15 K, x2 = 0.6921): 869.471 ± 0.22 kg/m3 | mass density (298.15 K, x2 = 0.7463): 858.202 ± 0.2 kg/m3 | mass density (298.15 K, x2 = 0.8007): 846.555 ± 0.19 kg/m3 | mass density (298.15 K, x2 = 0.847): 836.277 ± 0.17 kg/m3 | mass density (298.15 K, x2 = 0.8993): 824.346 ± 0.16 kg/m3 | mass density (298.15 K, x2 = 0.9472): 813 ± 0.16 kg/m3 | speed of sound (303.15 K, x2 = 0.0641): 1526 ± 2 m/s | speed of sound (303.15 K, x2 = 0.1123): 1510.7 ± 2 m/s | speed of sound (303.15 K, x2 = 0.1581): 1495.9 ± 1.9 m/s | speed of sound (303.15 K, x2 = 0.2036): 1481.1 ± 1.9 m/s | speed of sound (303.15 K, x2 = 0.2591): 1462.5 ± 1.8 m/s | speed of sound (303.15 K, x2 = 0.3061): 1446.5 ± 1.7 m/s | speed of sound (303.15 K, x2 = 0.3513): 1430.8 ± 1.6 m/s | speed of sound (303.15 K, x2 = 0.4022): 1412.9 ± 1.6 m/s | speed of sound (303.15 K, x2 = 0.4472): 1396.5 ± 1.5 m/s | speed of sound (303.15 K, x2 = 0.5025): 1376.1 ± 1.4 m/s | speed of sound (303.15 K, x2 = 0.5536): 1356.9 ± 1.4 m/s | speed of sound (303.15 K, x2 = 0.5984): 1339.7 ± 1.3 m/s | speed of sound (303.15 K, x2 = 0.6489): 1320.1 ± 1.2 m/s | speed of sound (303.15 K, x2 = 0.6969): 1300.7 ± 1.2 m/s | speed of sound (303.15 K, x2 = 0.7543): 1277.1 ± 1.1 m/s | speed of sound (303.15 K, x2 = 0.8047): 1256 ± 1 m/s | speed of sound (303.15 K, x2 = 0.8497): 1237.1 ± 0.97 m/s | speed of sound (303.15 K, x2 = 0.8965): 1216.8 ± 0.91 m/s | speed of sound (303.15 K, x2 = 0.9524): 1192.2 ± 0.85 m/s | mass density (303.15 K, x2 = 0.0641): 969.669 ± 0.73 kg/m3 | mass density (303.15 K, x2 = 0.1123): 962.964 ± 0.67 kg/m3 | mass density (303.15 K, x2 = 0.1581): 956.434 ± 0.62 kg/m3 | mass density (303.15 K, x2 = 0.2036): 949.789 ± 0.57 kg/m3 | mass density (303.15 K, x2 = 0.2591): 941.381 ± 0.52 kg/m3 | mass density (303.15 K, x2 = 0.3061): 934.049 ± 0.47 kg/m3 | mass density (303.15 K, x2 = 0.3513): 926.789 ± 0.43 kg/m3 | mass density (303.15 K, x2 = 0.4022): 918.424 ± 0.39 kg/m3 | mass density (303.15 K, x2 = 0.4472): 910.653 ± 0.36 kg/m3 | mass density (303.15 K, x2 = 0.5025): 900.926 ± 0.32 kg/m3 | mass density (303.15 K, x2 = 0.5536): 891.605 ± 0.29 kg/m3 | mass density (303.15 K, x2 = 0.5984): 883.203 ± 0.27 kg/m3 | mass density (303.15 K, x2 = 0.6489): 873.485 ± 0.24 kg/m3 | mass density (303.15 K, x2 = 0.6969): 863.705 ± 0.22 kg/m3 | mass density (303.15 K, x2 = 0.7543): 851.719 ± 0.2 kg/m3 | mass density (303.15 K, x2 = 0.8047): 840.797 ± 0.19 kg/m3 | mass density (303.15 K, x2 = 0.8497): 830.818 ± 0.18 kg/m3 | mass density (303.15 K, x2 = 0.8965): 819.999 ± 0.17 kg/m3 | mass density (303.15 K, x2 = 0.9524): 806.615 ± 0.16 kg/m3
